Entries after “also recorded” stand apart in the source; their conditions may differ.
Assays:
[1] = Topical ocular composition of Example 103 administered to the eyes; type: in vivo; settings: 0.50 wt % topical composition
Procedure: Examples of such assays are described in the following reference, incorporated herein: C. Liljebris, G. Selen, B. Resul, J. Sternschantz, and U. Hacksell, “Derivatives of 17-Phenyl-18,19,20-trinorprostaglandin F2α Isopropyl Ester: Potential Antiglaucoma Agents”, Journal of Medicinal Chemistry, Vol. 38 (2) 1995, pp. 289-304.
Topical pharmaceutical compositions for lowering intraocular pressure are prepared by conventional methods and formulated as follows: […]
A compound according to this invention is used as the hydrazide derivative. […]

[2] = target: T1, hGRK-2 (Homo sapiens, UniProt P25098); test: luciferase-based (Kinase-Glo) biochemical kinase inhibition assay, hGRK-2; settings: for Ki: luciferase assay, casein substrate, 10 μM ATP, read-out: GRK-2 inhibition, Ki class
T1 sequence (P25098 1-689): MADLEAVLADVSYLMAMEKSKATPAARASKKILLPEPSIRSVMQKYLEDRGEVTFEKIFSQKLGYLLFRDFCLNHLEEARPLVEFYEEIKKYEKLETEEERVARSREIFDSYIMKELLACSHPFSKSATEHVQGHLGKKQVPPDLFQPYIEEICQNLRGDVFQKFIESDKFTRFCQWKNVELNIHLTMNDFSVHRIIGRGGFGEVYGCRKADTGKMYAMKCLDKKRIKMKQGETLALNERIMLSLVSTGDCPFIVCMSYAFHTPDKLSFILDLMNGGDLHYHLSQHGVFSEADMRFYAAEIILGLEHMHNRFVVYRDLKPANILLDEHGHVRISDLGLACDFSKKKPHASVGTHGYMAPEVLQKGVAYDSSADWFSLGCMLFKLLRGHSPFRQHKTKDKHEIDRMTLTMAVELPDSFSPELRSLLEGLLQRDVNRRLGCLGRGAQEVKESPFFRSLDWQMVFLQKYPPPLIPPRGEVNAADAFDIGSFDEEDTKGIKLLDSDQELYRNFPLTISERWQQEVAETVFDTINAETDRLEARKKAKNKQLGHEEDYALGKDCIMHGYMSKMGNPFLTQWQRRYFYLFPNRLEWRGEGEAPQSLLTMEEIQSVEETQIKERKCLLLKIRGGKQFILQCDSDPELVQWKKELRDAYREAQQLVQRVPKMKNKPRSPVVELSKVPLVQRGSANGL
Procedure, shortened: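 Final conditions: 50 nM hGRK2, 20 μM casein, 10 μM ATP and 50 μM test compound in 4.5% DMSO, in HEPES pH 7.5 buffer with MgCl2, orthovanadate, CHAPS, BSA and DTT. Incubation ran 90-120 min at room temperature, targeting 20-30% ATP consumption. Remaining ATP was read by luminescence with diluted Kinase-Glo containing 0.01% trypan blue.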

[3] = target: GRK-6 (Homo sapiens, UniProt P43250); test: luciferase-based biochemical kinase inhibition assay, GRK-6; settings: same luciferase assay; read-out: GRK-6 inhibition, Ki class
Sequence of GRK-6 (P43250 whole entry, species assumed): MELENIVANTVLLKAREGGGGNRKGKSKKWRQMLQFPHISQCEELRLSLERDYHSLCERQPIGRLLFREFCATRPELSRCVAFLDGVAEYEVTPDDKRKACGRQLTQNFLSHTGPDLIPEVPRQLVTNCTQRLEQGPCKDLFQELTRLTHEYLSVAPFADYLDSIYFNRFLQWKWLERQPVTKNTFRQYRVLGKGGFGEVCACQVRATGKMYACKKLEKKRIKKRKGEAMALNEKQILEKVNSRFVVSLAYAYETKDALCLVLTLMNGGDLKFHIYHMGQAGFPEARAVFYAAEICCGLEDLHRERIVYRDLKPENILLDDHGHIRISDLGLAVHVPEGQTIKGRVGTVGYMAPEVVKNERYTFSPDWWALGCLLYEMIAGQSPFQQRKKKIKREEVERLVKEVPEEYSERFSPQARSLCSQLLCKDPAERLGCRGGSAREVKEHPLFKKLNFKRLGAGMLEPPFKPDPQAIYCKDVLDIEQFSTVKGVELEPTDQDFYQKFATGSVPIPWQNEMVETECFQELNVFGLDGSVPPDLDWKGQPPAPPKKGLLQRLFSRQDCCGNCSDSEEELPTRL
Procedure: (§1) The inhibition of G-protein-coupled receptor kinases including hGRK-2 was determined for the hydrazide compounds using a biochemical assay. The inhibition of GRK-3, GRK-5 and GRK-6 was also determined using the same assay for some of the hydrazide derivatives.
(§2) The protein kinase inhibition was determined using a biochemical assay utilizing the light emission of a luciferase reaction. The luciferase-based assay operates on the following reaction principles: [drawing 10]
(§3) An inhibitor of GRK-2 will increase in the amount of ATP in solution, as shown. Thus, an inhibitor of GRK-2 will drive the luciferase reaction to the right, resulting in more light emitted. The amount of light emitted is proportional to the inhibition resulting from the GRK-2 inhibitor. The luciferase-based assay was also used to test some of the hydrazides for the inhibition properties towards other kinases.

[4] = target: T2, GRK-3 (Homo sapiens, UniProt P35626); test: luciferase-based biochemical kinase inhibition assay, GRK-3; settings: same luciferase assay; read-out: GRK-3 inhibition, Ki class
T2 sequence (P35626 1-688): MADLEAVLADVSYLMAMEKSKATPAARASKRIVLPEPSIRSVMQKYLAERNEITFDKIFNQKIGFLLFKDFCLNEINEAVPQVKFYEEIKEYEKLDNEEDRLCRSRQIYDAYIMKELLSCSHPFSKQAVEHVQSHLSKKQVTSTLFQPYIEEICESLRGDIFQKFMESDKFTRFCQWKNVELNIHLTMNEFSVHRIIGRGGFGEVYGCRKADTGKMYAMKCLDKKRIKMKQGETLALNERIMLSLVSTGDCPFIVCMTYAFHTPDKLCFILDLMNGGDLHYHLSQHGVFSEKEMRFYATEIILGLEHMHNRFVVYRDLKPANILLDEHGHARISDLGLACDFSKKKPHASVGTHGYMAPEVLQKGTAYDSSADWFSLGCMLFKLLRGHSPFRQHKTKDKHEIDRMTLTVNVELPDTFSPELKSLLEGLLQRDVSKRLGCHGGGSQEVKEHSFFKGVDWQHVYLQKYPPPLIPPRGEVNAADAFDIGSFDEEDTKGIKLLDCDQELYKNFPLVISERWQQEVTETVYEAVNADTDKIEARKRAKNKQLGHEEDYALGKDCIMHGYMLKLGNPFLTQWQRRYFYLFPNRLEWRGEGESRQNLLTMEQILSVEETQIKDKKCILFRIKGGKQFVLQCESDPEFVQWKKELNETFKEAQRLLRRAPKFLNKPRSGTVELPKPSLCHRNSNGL
Procedure: as §1, §2, §3

[5] = target: Beta 1 Adrenergic receptor (B1 wt); test: Transfluor assay, ISO-induced arrestin-GFP translocation to Beta 1 Adrenergic receptor; type: cell-based; settings: U2OS cells
[6] = system: Beta 2 Adrenergic receptor; test: cAMP accumulation in HEK-293 cells with isoproterenol; type: cell-based; settings: Beta 2 Adrenergic receptor overexpressed, fixed concentration of isoproterenol, increased concentrations of compound
Description: This is consistent with the inhibition of GRK-2 resulting in less translocation of arrestin-GFP, less desensitization, and consequently more signaling by the B2AR. With more receptors available now on the surface of the cell, more cAMP is being generated in the presence of isoproterenol.

[7] = target: Beta 2 Adrenergic Receptor (B2 wt); test: Transfluor assay, isoproterenol-induced arrestin-GFP translocation to Beta 2 Adrenergic Receptor; type: cell-based; settings: U2OS cells
[8] = system: mu-opioid receptor; settings: U2OS cells
[9] = target: GRK-5 (Homo sapiens, UniProt P34947); test: luciferase-based biochemical kinase inhibition assay, GRK-5; settings: same luciferase assay; read-out: GRK-5 inhibition, Ki class
Sequence of GRK-5 (P34947 whole entry, species assumed): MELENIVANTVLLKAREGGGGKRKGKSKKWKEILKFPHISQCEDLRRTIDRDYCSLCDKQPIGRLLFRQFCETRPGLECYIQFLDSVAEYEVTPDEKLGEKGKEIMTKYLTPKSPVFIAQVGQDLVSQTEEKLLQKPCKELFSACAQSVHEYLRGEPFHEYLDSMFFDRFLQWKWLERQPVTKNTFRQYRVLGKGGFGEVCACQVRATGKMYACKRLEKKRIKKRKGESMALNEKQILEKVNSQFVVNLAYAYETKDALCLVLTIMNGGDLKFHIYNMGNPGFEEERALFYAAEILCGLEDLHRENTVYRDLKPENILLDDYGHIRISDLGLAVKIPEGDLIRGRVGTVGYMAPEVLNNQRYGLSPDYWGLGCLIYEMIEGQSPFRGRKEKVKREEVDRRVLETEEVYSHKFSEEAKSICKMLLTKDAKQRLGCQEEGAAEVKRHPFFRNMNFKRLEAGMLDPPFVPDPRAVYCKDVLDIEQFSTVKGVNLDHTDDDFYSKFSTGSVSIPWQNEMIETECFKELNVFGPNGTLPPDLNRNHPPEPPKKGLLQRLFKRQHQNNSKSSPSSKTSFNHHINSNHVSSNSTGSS
Procedure: The inhibition of G-protein-coupled receptor kinases including hGRK-2 was determined for the hydrazide compounds using a biochemical assay. […] The inhibition of GRK-3, GRK-5 and GRK-6 was also determined using the same assay for some of the hydrazide derivatives.
as §2, §3

Compound	Ki [2]	Ki [3]	Ki [4]	Ki [9]	other results
NC(=O)c1ccc(NCC(=O)N/N=C/c2c(Cl)cncc2Cl)cc1 [Example 28, 4-{[1-(3,5-Dichloro-pyridin-4-yl)-meth-(E)-ylidene-hydrazinocarbonylmethyl]-amino}-benzamide]	> 10000 nM	–	–	–	intraocular pressure ([1]; drop twice per day): substantially decreases intraocular pressure
3-{[1-Pyridin-4-yl-meth-(E)-ylidene-hydrazinocarbonylmethyl]-amino}-benzamide [Example 41]	10 to 100 nM	> 10000 nM	10 to 100 nM	–	IC50 ([5]; 60 minute pre-incubation, ISO-induced β-arrestin translocation, read-out: IC50 of the β1 arrestin (FIG. 2)): > 10000 nM; inhibition of arrestin-GFP translocation to the B1 WT [5]: modest inhibition; accumulation of cAMP [6]: increased accumulation of cAMP; inhibition of GRK-2, in words [2]: very good inhibitor of GRK-2; IC50 ([7]; 60 minute pre-incubation, ISO-induced β-arrestin translocation, read-out: IC50 of the β2 arrestin (FIG. 1)): 4000 nM; inhibition of arrestin-GFP translocation to the B2 WT (F-grains) ([7]; isoproterenol): stepwise reduction in translocation; also recorded: modest inhibition; inhibition of arrestin-GFP translocation to the μ opioid [8]: strong inhibition; IC50 ([8]; read-out: IC50 for the μ-opioid receptor (FIG. 3), 60 minute pre-incubation, morphine-induced β-arrestin translocation): ~150 nM
COc1cccc(NCC(=O)N/N=C/c2c(Cl)cncc2Cl)c1 [Example 5, (3-Methoxy-phenylamino)-acetic acid [1-(3,5-dichloro-pyridin-4-yl)-meth-(E)-ylidene]-hydrazide]	10 to 100 nM	> 10000 nM	10 to 100 nM	–	–
O=C(CNc1cccc(OCc2ccccc2)c1)N/N=C/c1c(Cl)cncc1Cl [Example 9, (3-Benzyloxy-phenylamino)-acetic acid [1-(3,5-dichloro-pyridin-4-yl)-meth-(E)-ylidene]-hydrazide]	100 to 1000 nM	> 10000 nM	100 to 1000 nM	1000 to 10000 nM	–
O=C(CNc1cccc(Oc2ccccc2)c1)N/N=C/c1c(Cl)cncc1Cl [Example 15, (3-Phenoxy-phenylamino)-acetic acid [1-(3,5-dichloro-pyridin-4-yl)-meth-(E)-ylidene]-hydrazide]	100 to 1000 nM	> 10000 nM	100 to 1000 nM	1000 to 10000 nM	–
CNC(=O)c1cccc(NCC(=O)N/N=C/c2c(Cl)cncc2Cl)c1 [Example 13, 3-{[1-(3,5-Dichloro-pyridin-4-yl)-meth-(E)-ylidene-hydrazinocarbonylmethyl]-amino}-N-methyl-benzamide]	100 to 1000 nM	> 10000 nM	100 to 1000 nM	1000 to 10000 nM	–

Further lines, with some results ahead:

Ki [2]	Ki [3]	Ki [4]	Ki [9]	Compound	other results
100 to 1000 nM	–	–	–	O=C(CNc1cccc(C(=O)NCCN2CCOCC2)c1)N/N=C/c1ccncc1 [Example 79, N-(2-Morpholin-4-yl-ethyl)-3-{[1-pyridin-4-yl-meth-(E)-ylidene-hydrazinocarbonylmethyl]-amino}-benzamide]	intraocular pressure ([1]; drop 4 times per day): substantially decreases intraocular pressure; neuroprotective agent ([1]; drop 4 times per day): serves as a neuroprotective agent
100 to 1000 nM	> 10000 nM	100 to 1000 nM	1000 to 10000 nM	COc1cccc(NCC(=O)N/N=C(\C)c2ccncc2)c1 [Example 88, (3-Methoxy-phenylamino)-acetic acid [1-pyridin-4-yl-eth-(E)-ylidene]-hydrazide]	–
100 to 1000 nM	–	100 to 1000 nM	–	NC(=O)c1cccc(NCC(=O)N/N=C/c2ccncc2)c1 [Example 51, 3-{[1-Pyridin-4-yl-meth-(E)-ylidene-hydrazinocarbonylmethyl]-amino}-benzamide]	hyperemia, redness and ocular irritation ([1]; drop as needed): substantially decreases hyperemia, redness and ocular irritation
10 to 100 nM	> 10000 nM	10 to 100 nM	1000 to 10000 nM	COc1cccc(NCC(=O)N/N=C/c2ccncc2)c1 [Example 43, (3-Methoxy-phenylamino)-acetic acid [1-pyridin-4-yl-meth-(E)-ylidene]-hydrazide]	–
10 to 100 nM	–	–	–	Cc1ccc(Oc2cccc(NCC(=O)N/N=C/c3ccncc3)c2)cc1 [Example 85, (3-p-Tolyloxy-phenylamino)-acetic acid [1-pyridin-4-yl-meth-(E)-ylidene]-hydrazide]	allergic symptoms ([1]; drop twice per day): substantially decreases allergic symptoms; dry eye syndrome ([1]; drop twice per day): relieves dry eye syndrome
100 to 1000 nM	> 10000 nM	100 to 1000 nM	> 10000 nM	O=C(CNc1cccc(Oc2ccccc2)c1)N/N=C/c1ccncc1 [Example 55, (3-Phenoxy-phenylamino)-acetic acid [1-pyridin-4-yl-meth-(E)-ylidene]-hydrazide]	–
